The source made the active and inactive calls. The rule behind the calls is not given here.

Data on 65 compounds can be found in PubChem BioAssay AID1418 (Emory University Molecular Libraries Screening Center, 2008).

For the experiment, the target named is Induced myeloid leukemia cell differentiation protein Mcl-1 (Homo sapiens) (UniProt Q07820). Nature of the experiment: blockers of Bid binding to Mcl-1 – biochemical, TR-FRET, dose response (AID 1418). Conditions: Mcl-1/Bid peptide binding, TR-FRET (europium/Dy647), 2 hr. (In general: In TR-FRET formats the signal depends on donor and acceptor labels being close together.)
Chain of Induced myeloid leukemia cell differentiation protein Mcl-1 (Homo sapiens) (Q07820 whole entry, looked up): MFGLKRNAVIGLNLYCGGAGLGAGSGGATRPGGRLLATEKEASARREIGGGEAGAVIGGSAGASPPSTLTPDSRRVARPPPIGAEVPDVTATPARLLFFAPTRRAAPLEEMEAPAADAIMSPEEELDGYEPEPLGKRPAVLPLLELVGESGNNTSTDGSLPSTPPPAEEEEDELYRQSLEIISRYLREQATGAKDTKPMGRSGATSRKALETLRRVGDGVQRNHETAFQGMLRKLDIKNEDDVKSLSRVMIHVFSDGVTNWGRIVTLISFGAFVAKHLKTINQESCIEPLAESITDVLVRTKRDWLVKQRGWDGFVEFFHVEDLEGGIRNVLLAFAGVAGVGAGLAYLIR
In the case of `Cc1ccc(CNC(=O)c2ccc3nc4[nH]c5ccccc5c4nc3c2)cc1`, the IC50 is 6.82 µM.
Then `O=C(Nc1nccs1)c1cccc(N2C(=O)c3cccc4c([N+](=O)[O-])ccc(c34)C2=O)c1`, with 0.53 µM; and `CNC(=O)CN(C1CCCCC1)S(=O)(=O)c1ccc(OC)c(Cl)c1`, with > 54 µM (inactive).
With `CN1CCN2c3ccc(N)cc3CC3(C(=O)NC(=O)NC3=O)C2C1` (stereo not given) the figure was 0.48 µM; with `O=C(NCC1CCCO1)c1cc([N+](=O)[O-])ccc1Cl` (stereo not given), > 54 µM (inactive); with `N=c1cc(C2(O)CCCCC2)n2c(nc3ccccc32)s1`, > 54 µM (inactive).
Then `O=[N+]([O-])C(=c1ccc2c(c1)N1C3=C(CCCC3)CC3CCCCC31N=2)[N+](=O)[O-]` (stereo not given), with 0.73 µM; and `O=C(N/N=C/C(Br)=C\c1ccccc1)c1ccco1`, with > 54 µM (inactive).
In the case of `CCOc1ccccc1Nc1nc(-c2sc(NC(=O)c3ccc([N+](=O)[O-])cc3)nc2C)cs1`, the half-maximal inhibitory concentration (IC50) was 1.37 µM.
Take `Cc1cccc(NC(=O)C2C(C(=O)O)C3C=CC2C32CC2)c1C` (stereo not given): the IC50 is > 54 µM (inactive).
With `COc1ccc(CCNC(=O)COC(=O)Cc2ccccc2)cc1` the figure was > 54 µM (inactive); with `CCc1cccc(CC)c1NC(=S)N1CCn2cccc2C1c1cccnc1` (stereo not given), > 54 µM (inactive).
With `Cc1sc2ncnc(OCC(=O)Nc3ccc4c(c3)OCCO4)c2c1C`, the IC50 was > 54 µM (inactive).
In the case of `O=C1C(=Cc2cccn2-c2ccc(O)cc2)C(=O)c2ccccc21`, the IC50 is 2.53 µM.
With `Cc1ccc(-c2cc(-c3ccc4c(c3)OCO4)c(C#N)c(N)n2)o1` the figure was 16.4 µM.
Then `O=C(O)CCCCCN1C(=O)/C(=C\c2cn(-c3ccccc3)nc2-c2cccs2)SC1=S`, with 9.29 µM; and `CN(C)c1ccnc2sc(C(N)=O)c(N)c12`, with > 54 µM (inactive); and `Cc1nc(NC(=O)c2ccccc2)sc1-c1csc(Nc2ccc(C(=O)O)cc2)n1`, with 9.88 µM.
Then `COc1ccccc1NS(=O)(=O)c1cccc(NC(=O)C2CC(=O)N(Cc3ccccc3)C2)c1` (stereo not given), with > 54 µM (inactive); and `COc1cc(-c2nc(-c3ccc(NC(=O)c4ccc(Br)o4)cc3)no2)cc(OC)c1OC`, with 1.81 µM; and `O=c1c2ccccc2nc(/C=C/c2cccnc2)n1CCc1ccccc1`, with 0.63 µM.
For the compound `C=CCOC(=O)c1cc(-c2ccc(/C=C3\C(=O)NC(=O)C(C#N)=C3C)o2)ccc1Cl`, the concentration for half-maximal inhibition (IC50) is 0.53 µM.
In the case of `COc1ccccc1N1CCN(CC(=O)c2c(C)[nH]c3ccccc23)CC1`, the IC50 was > 54 µM (inactive).
Turning to `CC(=O)OCCn1c2nc(=O)[nH]c(=O)c-2nc2cc(C)c(C)cc21`, the IC50 is 18.8 µM.
With `CC(C)[n+]1ccn(C2=C([O-])c3ccccc3C(=O)/C2=N\S(=O)(=O)c2ccccc2)c1` the figure was > 54 µM (inactive); with `CCc1ccc(NC(=S)NC2CC3CCC(C2)N3Cc2ccco2)cc1` (stereo not given), > 54 µM (inactive); with `O=C(O)COc1ccccc1C(Nc1ccccn1)c1cc(Cl)c2cccnc2c1O` (stereo not given), 5.42 µM.
With `CC(=O)N1CCc2cc(S(=O)(=O)NC(Cc3ccccc3)C(=O)NC3CCCCCC3)ccc21` (stereo not given) the figure was > 54 µM (inactive); with `COc1cccc(C(=O)Nc2ccc3nc(N4CCN(c5ncccn5)CC4)cc(C)c3c2)c1OC`, 0.53 µM.
With `CC(NC(=O)Cn1cnc2c1c(=O)n(C)c(=O)n2C)c1ccccc1` (stereo not given) the figure was > 54 µM (inactive); with `CCn1c(C)cc(/C=C2\NC(=O)N(Cc3ccc(Cl)cc3)C2=O)c1C`, 9.26 µM.
For the compound `COc1ccc(C2C(C#N)=C(N)OC3=C2C(=O)CCC3)cc1OC` (stereo not given), the IC50 was > 54 µM (inactive).
Then `C#CCn1cc(/C=N/NC(=O)COc2cccc3cccnc23)c2ccccc21`, with 0.86 µM; and `COc1cc(/C=C(/C#N)c2nc3ccccc3c(=O)[nH]2)ccc1O`, with 1.15 µM.
Then `NC(=O)N1CCN(C(=O)c2ccco2)CC1`, with > 54 µM (inactive); and `COc1cc2nc(N3CCN(C(=O)c4ccco4)CC3)nc(N)c2cc1OC`, with > 54 µM (inactive).
With `COc1cccc(OC)c1C(=O)N1CCN(Cc2ccncc2)CC1` the figure was > 54 µM (inactive).
As for `Cc1ccc(C(=O)NNC(=O)CCC(=O)Nc2cc(C)on2)cc1`, the IC50 was > 54 µM (inactive).
Then `C=CCc1cccc2cc(C(=O)Nc3ccc(S(=O)(=O)Nc4nnc(CC)s4)cc3)c(=O)oc12`, with > 54 µM (inactive); and `O=C(Cc1ccccc1)Nc1scc(-c2ccccc2)c1C(=O)N1CCOCC1`, with > 54 µM (inactive).
Then `COc1cc(C(=O)N/N=C\c2ccccc2)c([N+](=O)[O-])c(OC)c1OC`, with > 54 µM (inactive); and `CCNC(=O)c1cc(S(=O)(=O)N(C)C)c(Cl)cc1Cl`, with > 54 µM (inactive).
Then `O=C1OC(c2cccs2)=N/C1=C/c1ccc(-c2cccc(C(=O)O)c2)o1`, with 2.68 µM.
For the compound `O=C(Cn1c(C(F)(F)F)nc2ccccc21)c1ccc(F)cc1`, the IC50 was > 54 µM (inactive).
Regarding `Cc1nc2c(-c3ccc(Cl)cc3)cnn2c2c1CCC2`, the IC50 was > 54 µM (inactive).
Then `CC(C)(C)NC(=O)c1sccc1C(=O)O`, with > 54 µM (inactive).
Then `CNc1ccc(Br)cc(C(=O)/C=C/c2cccc(Cl)c2Cl)c1=O`, with 3.46 µM; and `Cc1cccc(Cn2c(C)nc3c(N)c(C)c(C)cc32)c1`, with > 54 µM (inactive).
Then `CC(C)NC(=O)c1ccc(COCC(F)(F)F)cc1`, with > 54 µM (inactive).
As for `CCOC(=O)NC(=O)/C(C#N)=C/c1ccc(N(C)C)cc1`, the IC50 is > 54 µM (inactive).
Then `Clc1ccccc1CN1CCc2sccc2C1`, with > 54 µM (inactive); and `CCOc1ccc2nc(NC(=O)c3cccc(-c4cc5ccccc5oc4=O)c3)sc2c1`, with 1.94 µM.
With `CCOC(=O)c1cc(C#N)c(SCC(=O)OC)[nH]c1=O` the figure was > 54 µM (inactive); with `O=C1CN(C(=O)CNCc2ccccc2)c2ccccc2N1`, > 54 µM (inactive); with `Cc1ccccc1C(=O)Nc1ccc2c(C#N)c3nc4ccccc4nc3n2c1`, 1.05 µM.
For `COc1cccc2c1c(NC(=O)Nc1ccc(F)cc1F)nn2C`, the IC50 is > 54 µM (inactive).
With `COc1cc(NC(=O)C2CCN(S(=O)(=O)c3cccc4nonc34)CC2)cc(OC)c1` the figure was > 54 µM (inactive); with `Cc1cccc(N2CCN(C(=O)Cc3ccc(-n4c(=O)[nH]c5ccsc5c4=O)cc3)CC2C)c1` (stereo not given), > 54 µM (inactive); with `CC(=O)c1c(N=CN(C)C)nc(C)nc1-c1ccccc1`, > 54 µM (inactive).
Then `NC(=S)Nc1ccc(F)cc1F`, with > 54 µM (inactive).
In the case of `CC1(C)CC(=O)C(C(c2cccnc2)C2C(=O)CC(C)(C)CC2=O)C(=O)C1`, the IC50 was > 54 µM (inactive).
With `COc1ccc(-c2ccc(/C=C3/C(=N)N4C=CSC4=NC3=O)o2)c([N+](=O)[O-])c1` the figure was 1.46 µM.
Take `COc1ccc(/C=N/NS(=O)(=O)c2ccccc2)cc1OC(=O)c1ccc(C)cc1`: the IC50 was > 54 µM (inactive).
Take `CC(C)(C)CC(=O)O/N=C(\N)c1ccccn1`: the IC50 was > 54 µM (inactive).
With `Clc1ccccc1-c1nc2ccccc2[nH]1` the figure was > 54 µM (inactive).

The IC50 is the midpoint of a concentration-inhibition curve.
